# Results reported in patent US7547690B2, “Compounds for the treatment of Hepatitis C” (Bristol-Myers Squibb Company, priority 2007, dated 2009).
# pEC50, pIC50: −log10 of the molar value. Where two headings read alike, the source gives them in different places.
# How the values were obtained:
# HCV NS5B = biological target: T1, HCV NS5B (Hepatitis C virus genotype 1b, UniProt Q9WMX2); assay: HCV NS5B RdRp enzyme assay (standard / modified); format: biochemical; details: HCV RdRp genotype 1b; standard or modified assay not specified; read-out: IC50
# T1 construct: The protein was expressed with an 18 amino acid C-terminal truncation to enhance the solubility; made in house; host or cells: E. coli BL21(DE3)
# Protocol: HCV NS5B RdRp cloning, expression, and purification. The cDNA encoding the NS5B protein of HCV, genotype 1b, was cloned into the pET21a expression vector. The protein was expressed with an 18 amino acid C-terminal truncation to enhance the solubility. The E. coli competent cell line BL21(DE3) was used for expression of the protein. Cultures were grown at 37° C. for ˜4 hours until the cultures reached an optical density of 2.0 at 600 nm. The cultures were cooled to 20° C. and induced with 1 mM IPTG. Fresh ampicillin was added to a final concentration of 50 μg/ml and the cells were grown overnight at 20° C.
# Cell pellets (3 L) were lysed for purification to yield 15-24 mgs of purified NS5B. The lysis buffer consisted of 20 mM Tris-HCl, pH 7.4, 500 mM NaCl, 0.5% triton X-100, 1 mM DTT, 1 mM EDTA, 20% glycerol, 0.5 mg/ml lysozyme, 10 mM MgCl2, 15 ug/ml deoxyribonuclease I, and Complete TM protease inhibitor tablets (Roche). After addition of the lysis buffer, frozen cell pellets were resuspended using a tissue homogenizer. To reduce the viscosity of the sample, aliquots of the lysate were sonicated on ice using a microtip attached to a Branson sonicator. The sonicated lysate was centrifuged at 100,000×g for 1 hr at 4° C. and filtered through a 0.2 μm filter unit (Corning).
# The protein was purified using two sequential chromatography steps: Heparin sepharose CL-6B and polyU sepharose 4B (Pharmacia). The chromatography buffers were identical to the lysis buffer but contained no lysozyme, deoxyribonuclease I, MgCl2 or protease inhibitor and the NaCl concentration of the buffer was adjusted according to the requirements for charging the protein onto the column. Each column was eluted with a NaCl gradient which varied in length from 5-50 column volumes depending on the column type. After the final chromatography step, the resulting purity of the enzyme is >90% based on SDS-PAGE analysis. The enzyme was aliquoted and stored at −80° C.
# Standard HCV NS5B RdRp enzyme assay. HCV RdRp genotype 1b assays were run in a final volume of 60 μl in 96 well plates (Corning 3600). The assay buffer is composed of 20 mM Hepes, pH 7.5, 2.5 mM KCl, 2.5 mM MgCl2, 1 mM DTT, 1.6 U RNAse inhibitor (Promega N2515), 0.01 mg/ml BSA (Sigma B6917), and 2% glycerol. All compounds were serially diluted (3-fold) in DMSO and diluted further in water such that the final concentration of DMSO in the assay was 2%. HCV RdRp genotype 1b enzyme was used at a final concentration of 28 nM. A polyA template was used at 6 nM, and a biotinylated oligo-dT12 primer was used at 180 nM final concentration. Template was obtained commercially (Amersham 27-4110). Biotinylated primer was prepared by Sigma Genosys. 3H-UTP was used at 0.6 μCi (0.29 μM total UTP). Reactions were initiated by the addition of enzyme, incubated at 30 ° C. for 60 min, and stopped by adding 25 μl of 50 mM EDTA containing SPA beads (4 μg/μl, Amersham RPNQ 0007). Plates were read on a Packard Top Count NXT after >1 hr incubation at room temperature.
# Modified HCV NS5B RdRp enzyme assay. A modified enzyme assay was performed essentially as described for the standard enzyme assay except for the following: The biotinylated oligo dT12 primer was precaptured on streptavidin-coated SPA beads by mixing primer and beads in assay buffer and incubating at room temperature for one hour. Unbound primer was removed after centrifugation. The primer-bound beads were resuspended in 20 mM Hepes buffer, pH 7.5 and used in the assay at final concentrations of 20 nM primer and 0.67 μg/μl beads. Order of addition in the assay: enzyme (1.75 nM) was added to diluted compound followed by the addition of a mixture of template (0.36 nM), 3H-UTP (0.6 μCi, 0.29 μM), and primer-bound beads, to initiate the reaction; concentrations given are final. Reactions were allowed to proceed for 4 hours at 30° C.
# IC50 values for compounds were determined using seven different [I]. […]
# HCV replicon cells = assay: HCV replicon FRET / luciferase assay; format: cell-based; details: 50% reduction in FRET or luciferase activity in HCV replicon cells, read-out: EC50
# Protocol: FRET Assay Preparation. The HCV FRET screening assay was performed in 96-well cell culture plates. The FRET peptide (Anaspec, Inc.) (Taliani et al., Anal. Biochem. 1996, 240, 60-67) contains a fluorescence donor, EDANS, near one end of the peptide and an acceptor, DABCYL, near the other end. The fluorescence of the peptide is quenched by […] resonance energy transfer (RET) between the donor and the acceptor, but as the NS3 protease cleaves the peptide the products are released from RET quenching and the fluorescence of the donor becomes apparent. The assay reagent was made as follows: 5× cell Luciferase cell culture lysis reagent from Promega (#E153A) diluted to 1× with dH2O, NaCl added to 150 mM final, the FRET peptide diluted to 20 μM final from a 2 mM stock.
# To prepare plates, HCV replicon cells, with or without a Renilla luciferase reporter gene, were trypsinized and plated in a 96-well plate with titrated test compounds added in columns 3 through 12; columns 1 and 2 contained a control compound (HCV control inhibitor), and the bottom row contained cells with DMSO only. The plates were then placed in a CO2 incubator at 37° C.
# Assays. Subsequent to addition of the test compounds described above (FRET Assay Preparation), at various times the plate was removed and Alamar blue solution (Trek Diagnostics, #00-100) was added to measure cellular toxicity. After reading in a Cytoflour 4000 instrument (PE Biosystems), plates were rinsed with PBS and then used for FRET assay by the addition of 30 ul of the FRET peptide assay reagent described above (FRET Assay Preparation) per well. The plate was then placed into the Cytoflour 4000 instrument which had been set to 340 excite/490 emission, automatic mode for up to 20 cycles and the plate read in a kinetic mode. Typically, the signal to noise using an endpoint analysis after the reads was at least three-fold. Alternatively, after Alamar blue reading, plates were rinsed with PBS, then used for luciferase assay using the Promega Dual-Glo Luciferase Assay System or the Promega EnduRen Live Cell Substrate assay.
# Compound analysis was performed by quantification of the relative HCV replicon inhibition and the relative cytotoxicity values. To calculate cytoxicity values, the average Alamar Blue fluorescence signals from the control wells were set as 100% non-toxic. The individual signals in each of the compound test wells were then divided by the average control signal and multiplied by 100% to determine […]. To calculate the HCV replicon inhibition values, an average background value was obtained from the two wells containing the highest amount of HCV control inhibitor at the end of the assay period. These numbers were similar to those obtained from naïve Huh-7 cells. The background numbers were then subtracted from the average signal obtained from the control wells and this number was used as 100% activity. The individual signals in each of the compound test wells were then divided by the averaged control values after background subtraction and multiplied by 100% to determine percent activity. EC50 values were calculated as the concentration which caused a 50% reduction in FRET or luciferase activity. The two numbers generated for the compound plate, percent cytoxicity and percent activity, were used to determine compounds of interest for further analysis.
# T1 sequence (Q9WMX2 2420-2992): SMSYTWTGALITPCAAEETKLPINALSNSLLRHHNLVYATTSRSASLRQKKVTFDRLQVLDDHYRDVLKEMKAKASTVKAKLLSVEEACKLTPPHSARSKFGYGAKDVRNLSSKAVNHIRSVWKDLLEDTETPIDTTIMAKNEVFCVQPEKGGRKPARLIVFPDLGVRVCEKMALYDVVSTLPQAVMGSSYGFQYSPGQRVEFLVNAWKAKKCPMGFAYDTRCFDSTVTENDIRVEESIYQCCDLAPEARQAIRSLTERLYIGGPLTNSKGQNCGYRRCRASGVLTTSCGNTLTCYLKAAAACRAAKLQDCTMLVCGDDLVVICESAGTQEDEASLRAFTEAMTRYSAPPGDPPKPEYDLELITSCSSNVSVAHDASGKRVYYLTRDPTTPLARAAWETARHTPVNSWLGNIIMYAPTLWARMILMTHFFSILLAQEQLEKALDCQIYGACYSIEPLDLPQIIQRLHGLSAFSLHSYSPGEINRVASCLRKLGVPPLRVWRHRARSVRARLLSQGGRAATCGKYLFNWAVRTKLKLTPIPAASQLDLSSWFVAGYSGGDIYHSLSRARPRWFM
SMILES,pIC50 (HCV NS5B),pEC50 (HCV replicon cells; Hepatitis C virus),pEC50 (HCV replicon cells)
COc1ccc2c(c1)C1CC1(C(=O)N1C3COC[C@@H]1CN(C)C3)Cn1c-2c(C2CCCCC2)c2ccc(C(=O)NS(=O)(=O)CCC(F)(F)F)cc21 (stereo partly shown),6.30 to 8.62,6.30 to 8.62,
COc1ccc2c(c1)C1CC1(C(=O)N1C3CC1CN(Cc1ccccc1)C3)Cn1c-2c(C2CCCCC2)c2ccc(C(=O)NS(=O)(=O)CC(C)C)cc21 (stereo not shown),6.30 to 8.62,6.30 to 8.62,
COc1ccc2c(c1)C1CC1(C(=O)N1CC3COCC(C1)N3)Cn1c-2c(C2CCCCC2)c2ccc(C(=O)NS(=O)(=O)N(C)C)cc21 (stereo not shown),6.30 to 8.62,6.30 to 8.62,
COc1ccc2c(c1)C1CC1(C(=O)N1CCN3CCC1CC3)Cn1c-2c(C2CCCCC2)c2ccc(C(=O)NS(=O)(=O)C3CC3)cc21 (stereo not shown) [drawing 50],6.30 to 8.62,6.30 to 8.62,
COc1ccc2c(c1)C1CC1(C(=O)N1C[C@@H]3C[C@H]1CN3C)Cn1c-2c(C2CCCCC2)c2ccc(C(=O)NS(=O)(=O)N(C)C)cc21 (stereo partly shown),> 7.70,6.30 to 8.62,
COc1ccc2c(c1)C1CC1(C(=O)N1C3CCCC1CN(C)C3)Cn1c-2c(C2CCCCC2)c2ccc(C(=O)NS(=O)(=O)N3CCOCC3)cc21 (stereo not shown),6.30 to 8.62,6.30 to 8.62,
CCN1C[C@H]2C[C@@H]1CN2C(=O)C12CC1c1cc(OC)ccc1-c1c(C3CCCCC3)c3ccc(C(=O)NS(=O)(=O)C4CC4)cc3n1C2 (stereo partly shown) [drawing 44],6.30 to 8.62,,6.30 to 8.62
COc1ccc2c(c1)C1CC1(C(=O)N1C3COCC1CN(C)C3)Cn1c-2c(C2CCCCC2)c2ccc(C(=O)NS(=O)(=O)N(C)C)cc21 (stereo not shown),6.30 to 8.62,6.30 to 8.62,
COc1ccc2c(c1)C1CC1(C(=O)N1CCN3CCC1C3)Cn1c-2c(C2CCCCC2)c2ccc(C(=O)NS(=O)(=O)N(C)C)cc21 (stereo not shown),6.30 to 8.62,6.30 to 8.62,
COc1ccc2c(c1)C1CC1(C(=O)N1CCN3CCC1CC3)Cn1c-2c(C2CCCCC2)c2ccc(C(=O)NS(C)(=O)=O)cc21 (stereo not shown),6.30 to 8.62,6.30 to 8.62,
CCS(=O)(=O)NC(=O)c1ccc2c(C3CCCCC3)c3n(c2c1)CC1(C(=O)N2C4CCCC2CN(C)C4)CC1c1cc(OC)ccc1-3 (stereo not shown),6.30 to 8.62,6.30 to 8.62,
COc1ccc2c(c1)C1CC1(C(=O)N1CC3CCC1CN3)Cn1c-2c(C2CCCCC2)c2ccc(C(=O)NS(=O)(=O)CC(C)C)cc21 (stereo not shown),6.30 to 8.62,< 6.00,
COc1ccc2c(c1)[C@@H]1C[C@]1(C(=O)N1CCC3CCC(C1)N3C)Cn1c-2c(C2CCCCC2)c2ccc(C(=O)NS(=O)(=O)N(C)C)cc21 (stereo partly shown),6.30 to 8.62,6.30 to 8.62,
COc1ccc2c(c1)[C@H]1C[C@@]1(C(=O)N1CC3CC1CN3C)Cn1c-2c(C2CCCCC2)c2ccc(C(=O)NS(=O)(=O)N(C)C)cc21 (stereo partly shown),6.30 to 8.62,6.30 to 8.62,
COc1ccc2c(c1)C1CC1(C(=O)N1C3CC1CN(Cc1ccccc1)C3)Cn1c-2c(C2CCCCC2)c2ccc(C(=O)NS(=O)(=O)CCC(F)(F)F)cc21 (stereo not shown),6.30 to 8.62,5.30 to 6.30,
COc1ccc2c(c1)C1CC1(C(=O)N1C[C@H]3C[C@@H]1CN3C(=O)OC(C)(C)C)Cn1c-2c(C2CCCCC2)c2ccc(C(=O)NS(C)(=O)=O)cc21 (stereo partly shown),6.30 to 8.62,6.30 to 8.62,
COc1ccc2c(c1)C1CC1(C(=O)N1C[C@@H]3C[C@H]1CN3C)Cn1c-2c(C2CCCCC2)c2ccc(C(=O)NS(=O)(=O)C3CC3)cc21 (stereo partly shown) [drawing 72],> 7.70,6.30 to 8.62,
COc1ccc2c(c1)C1CC1(C(=O)N1C3CC1CN(C)C3)Cn1c-2c(C2CCCCC2)c2ccc(C(=O)NS(=O)(=O)CC(C)(C)C)cc21 (stereo not shown),6.30 to 8.62,6.30 to 8.62,
CCN1C[C@H]2C[C@@H]1CN2C(=O)C12CC1c1cc(OC)ccc1-c1c(C3CCCCC3)c3ccc(C(=O)NS(=O)(=O)N4CCC4)cc3n1C2 (stereo partly shown),6.30 to 8.62,6.30 to 8.62,
CCN1CC2CC(C1)N2C(=O)C12CC1c1cc(OC)ccc1-c1c(C3CCCCC3)c3ccc(C(=O)NS(=O)(=O)C(C)C)cc3n1C2 (stereo not shown),6.30 to 8.62,6.30 to 8.62,
COc1ccc2c(c1)C1CC1(C(=O)N1C3COCC1CN(C(C)=O)C3)Cn1c-2c(C2CCCCC2)c2ccc(C(=O)NS(=O)(=O)N(C)C)cc21 (stereo not shown),6.30 to 8.62,6.30 to 8.62,
COc1ccc2c(c1)C1CC1(C(=O)N1C[C@@H]3C[C@H]1CN3C(=O)OC(C)(C)C)Cn1c-2c(C2CCCCC2)c2ccc(C(=O)NS(=O)(=O)C3CC3)cc21 (stereo partly shown),6.30 to 8.62,6.30 to 8.62,
COc1ccc2c(c1)C1CC1(C(=O)N1C[C@H]3C[C@@H](C1)c1cccc(=O)n1C3)Cn1c-2c(C2CCCCC2)c2ccc(C(=O)NS(=O)(=O)N(C)C)cc21 (stereo partly shown),> 7.15,6.30 to 8.62,
COc1ccc2c(c1)C1CC1(C(=O)N1C3CC1CN(C)C3)Cn1c-2c(C2CCCCC2)c2ccc(C(=O)NS(=O)(=O)CC(F)F)cc21 (stereo not shown),6.30 to 8.62,6.30 to 8.62,
COc1ccc2c(c1)C1CC1(C(=O)N1[C@@H]3C[C@H]1CN(C)C3)Cn1c-2c(C2CCCCC2)c2ccc(C(=O)NS(=O)(=O)N3CCC3)cc21 (stereo partly shown),6.30 to 8.62,6.30 to 8.62,
COc1ccc2c(c1)C1CC1(C(=O)N1C[C@@H]3C[C@H]1CN3C)Cn1c-2c(C2CCCCC2)c2ccc(C(=O)NS(=O)(=O)C3CC3)cc21 (stereo partly shown) [drawing 51],6.30 to 8.62,,< 6.30
